# Literature values in patent US11000594B2, “Composition comprising an organic liquid diluent and a cellulose ether of very low viscosity” (Dow Global Technologies LLC, priority 2012, dated 2021).
smiles,measurement,value
COC1=CC(=O)C[C@@H](C)[C@]12Oc1c(Cl)c(OC)cc(OC)c1C2=O [Griseofulvin],water solubility,8.54 µg/mL
